In brackets after ≈: the same amount, converted by molar mass.
Key:
[1] = Minimum inhibitory concentration (MIC), comparison of biocidal nanocomposites and existing decontaminants; type: cell-based; conditions: Table 1
Excerpt: (§1) Current antimicrobials have a short life with no residual effect. They lose there effectiveness in high protein environment. Certain bacteria developed resistance. They are toxic or cause irritations. Some are highly corrosive.

G+ & G− = assay: Bactericidal effectiveness, comparison table; type: cell-based; conditions: Table 1
Excerpt: as §1

spores = assay: Sporicidal effectiveness, comparison table; type: cell-based; conditions: Table 1
Excerpt: as §1

fungi = assay: Fungicidal effectiveness, comparison table; type: cell-based; conditions: Table 1
Excerpt: as §1

[2] = Excerpt: as §1

SMILES: OCl [Hypochlorite]
- Minimum inhibitory concentration (MIC) [1]: 150 µg/mL (≈ 2860 µM)
- Effectiveness Bactericidal (G+ & G−) (G+ & G−): very good
- Effectiveness Sporicidal (spores): no/fair
- Effectiveness Fungicidal (fungi): good
- Non-corrosive [2]: no
- Contact time ([2]; Table 1): 1 to 30 min
- Effective in hard water ([2]; Table 1): poor
- Effective in organics ([2]; Table 1): poor
- Effective in soap ([2]; Table 1): yes
- Residual activity ([2]; Table 1): poor
